Data as given in PubChem BioAssay AID1259407 (Chemical Carcinogenesis Research Information System (CCRIS), 2018).
Calls of active or inactive are those of the source. How the calls were made is not given here.

Test system: CCRIS mutagenicity, Ames/micronucleus/aberration tests
Assay: CCRIS mutagenicity studies
[1] = Test System: AMES SALMONELLA TYPHIMURIUM, Strain/Indicator: TA100, Metabolic Activation: NONE, Method: STANDARD PLATE

CCCN(N=O)C(N)=O
mutagenic call (Test System: AMES SALMONELLA TYPHIMURIUM, Strain/Indicator: TA1535, Metabolic Activation: NONE, Method: STANDARD PLATE): active; positive | mutagenic call (Test System: CHINESE HAMSTER V-79, Strain/Indicator: V-79/6-THIOGUANINE, Metabolic Activation: NONE, Method: FLASK ASSAY): active; positive | mutagenic call (Test System: E. COLI B, Strain/Indicator: H/R30R, Metabolic Activation: NONE): active; positive | mutagenic call (Test System: E. COLI B, Strain/Indicator: HS30R, Metabolic Activation: NONE): active; positive | mutagenic call (Test System: E. COLI, Strain/Indicator: WP2, Metabolic Activation: NONE, Method: STANDARD PLATE): active; positive | mutagenic call (Test System: E. COLI, Strain/Indicator: WP2 UVRA, Metabolic Activation: NONE, Method: STANDARD PLATE): active; positive

O=C1OCC(CCl)=C1Cl
mutagenic call [1]: active; positive

CC1(OO)c2ccccc2-c2ccccc21
mutagenic call (Test System: AMES SALMONELLA TYPHIMURIUM, Strain/Indicator: TA98, Metabolic Activation: NONE, Method: STANDARD PLATE): active; positive | mutagenic call (Test System: AMES SALMONELLA TYPHIMURIUM, Strain/Indicator: TA98, Metabolic Activation: RAT, LIVER, S-9, AROCLOR 1254, Method: STANDARD PLATE): active; positive | mutagenic call [1]: active; positive | mutagenic call (Test System: AMES SALMONELLA TYPHIMURIUM, Strain/Indicator: TA100, Metabolic Activation: RAT, LIVER, S-9, AROCLOR 1254, Method: STANDARD PLATE): active; positive

COc1ccc2c3c([nH]c2c1)C(C)=NCC3
mutagenic call (Test System: AMES SALMONELLA TYPHIMURIUM, Strain/Indicator: TA97, Metabolic Activation: NONE, Method: PREINCUBATION): inactive; negative | mutagenic call (Test System: AMES SALMONELLA TYPHIMURIUM, Strain/Indicator: TA97, Metabolic Activation: RAT, LIVER, S-9, AROCLOR 1254, Method: PREINCUBATION): inactive; negative | mutagenic call (Test System: AMES SALMONELLA TYPHIMURIUM, Strain/Indicator: TA98, Metabolic Activation: NONE, Method: PREINCUBATION): inactive; negative | mutagenic call (Test System: AMES SALMONELLA TYPHIMURIUM, Strain/Indicator: TA98, Metabolic Activation: RAT, LIVER, S-9, AROCLOR 1254, Method: PREINCUBATION): inactive; negative | mutagenic call (Test System: AMES SALMONELLA TYPHIMURIUM, Strain/Indicator: TA100, Metabolic Activation: NONE, Method: PREINCUBATION): inactive; negative | mutagenic call (Test System: AMES SALMONELLA TYPHIMURIUM, Strain/Indicator: TA100, Metabolic Activation: RAT, LIVER, S-9, AROCLOR 1254, Method: PREINCUBATION): inactive; negative | mutagenic call (Test System: AMES SALMONELLA TYPHIMURIUM, Strain/Indicator: TA102, Metabolic Activation: NONE, Method: PREINCUBATION): inactive; negative | mutagenic call (Test System: AMES SALMONELLA TYPHIMURIUM, Strain/Indicator: TA102, Metabolic Activation: RAT, LIVER, S-9, AROCLOR 1254, Method: PREINCUBATION): inactive; negative

Oc1ccc2cccnc2c1
mutagenic call [1]: inactive; negative | mutagenic call (Test System: AMES SALMONELLA TYPHIMURIUM, Strain/Indicator: TA100, Metabolic Activation: RAT, LIVER, S-9, AROCLOR 1254 (10% OR 20%), Method: STANDARD PLATE): inactive; negative

c1ccc2c(c1)C1=c3c-2cc2cccc4ccc(c3c42)C2OC12 (configuration not stated)
mutagenic call [1]: active; positive
